This passage reports EC50 results from article PMC13270500, “Legacy 4(1H)‑Quinolone Scaffolds Activity against Acute and Chronic Toxoplasma gondii Infection” (ACS Infectious Diseases, 2026).

pEC50: −log10 of the molar value.

For experiment [1], the system named is T. gondii RH (type I) tachyzoites. In words: In vitro tachyzoite growth dose response, RH-RFP (red fluorescence). Type of experiment: cell-based. Conditions: Toxoplasma gondii, RH-RFP type I wild-type, in vitro proliferation; read-out: EC50 against RH tachyzoites. On the procedure:
Experiments with T. gondii tachyzoites were carried out with parasites expressing a td-Tomato red fluorescent protein (RFP). , Parasites were purified by passing them through a 25-gauge needle, followed by filtration through a 5 μm filter. Human fibroblasts were cultured in 96-well black plates for 48 (hTERT) or 120 (HFF) hours before the addition of 4,000 fluorescent tachyzoites/well. […] Two technical replicates per concentration were used, and the experiment was repeated in three independent biological replicates. Fluorescence values were measured for up to 7 days, and both excitation (544 nm) and emission (590 nm) were read from the bottom of the plates in a BioTek Synergy H1 Hybrid plate reader. […] The EC50s were calculated using GraphPad Prism software version 10.

For experiment [2], the system named is ME49 R4 ATQ^R tachyzoites. Briefly: In vitro tachyzoite growth dose response, ATQ-resistant strain R4 (crystal violet). Type of experiment: cell-based. Conditions: Toxoplasma gondii, read-out: EC50 against R4 ATQ^R strain.

Regarding `O=C1C(O)=C([C@H]2CC[C@H](c3ccc(Cl)cc3)CC2)C(=O)c2ccccc21` [ATQ, atovaquone], the negative-log EC50 (pEC50) (as a rule, the EC50 on a negative log10 scale, so that one unit is a factor of ten) in experiment [1] is 7.85; in experiment [2], 5.73.
